{
  "source": "BindingDB's records for doi:10.1021/acs.jmedchem.0c01316",
  "about": "(Agricultural University of Athens, 2020)",
  "data": [
    {"experiment": "Inhibition of human RANKL-induced osteoclastogenesis in RANKL cultured mouse bone marrow cells assessed as reduction in RANKL/M-CSF-induced TRAP activity preincubated with RANKL for 1 hr followed by cell addition and subsequent media replenishment every 48 hrs for 4 days", "units": {"IC50": "nM"}, "values": [
      {"compound": "Cc1cc2occ(CN(C)CCN(C)Cc3cn(-c4cccc(C(F)(F)F)c4)c4ccccc34)c(=O)c2cc1C", "IC50": 1000},
      {"compound": "CN(CCN(C)Cc1cn(S(=O)(=O)c2ccccc2)c2ccccc12)Cc1coc2ccccc2c1=O", "IC50": 2500},
      {"compound": "CN(CCN(C)C(=O)c1cn(-c2cccc([N+](=O)[O-])c2)c2ccccc12)C(=O)c1coc2ccccc2c1=O", "IC50": 1880},
      {"compound": "CN(CCN(C)C(=O)c1cn(S(=O)(=O)c2ccccc2)c2ccccc12)C(=O)c1coc2ccccc2c1=O", "IC50": 2860},
      {"compound": "CN(CCN(C)C(=O)c1cn(S(=O)(=O)c2cccc([N+](=O)[O-])c2)c2ccccc12)C(=O)c1coc2ccccc2c1=O", "IC50": 5070},
      {"compound": "CN(CCN(C)S(=O)(=O)c1ccccc1)C(=O)c1cn(S(=O)(=O)c2cccc([N+](=O)[O-])c2)c2ccccc12", "IC50": 2700},
      {"compound": "CN(CCN(C)S(=O)(=O)c1ccc(C#N)cc1)C(=O)c1cn(S(=O)(=O)c2cccc([N+](=O)[O-])c2)c2ccccc12", "IC50": 2000},
      {"compound": "CN(CCN(C)S(=O)(=O)c1cccc([N+](=O)[O-])c1)C(=O)c1cn(S(=O)(=O)c2cccc([N+](=O)[O-])c2)c2ccccc12", "IC50": 1900},
      {"compound": "O=C(c1cn(S(=O)(=O)c2cccc([N+](=O)[O-])c2)c2ccccc12)N1CCN(S(=O)(=O)c2ccccc2)CC1", "IC50": 1400},
      {"compound": "N#Cc1ccc(S(=O)(=O)N2CCN(C(=O)c3cn(S(=O)(=O)c4cccc([N+](=O)[O-])c4)c4ccccc34)CC2)cc1", "IC50": 5100},
      {"compound": "O=C(c1cn(S(=O)(=O)c2cccc([N+](=O)[O-])c2)c2ccccc12)N1CCN(S(=O)(=O)c2cccc([N+](=O)[O-])c2)CC1", "IC50": 6400}
    ]}
  ]
}
